Measurements: patent US20260053765A1, “COMPOSITIONS AND METHODS FOR THE IMPROVEMENT OF MEMORY” (THE CHILDREN'S HOSPITAL OF PHILADELPHIA, priority 2016, published 2026)

Assays:
[1] = tested on: fluid percussion injury mice; experiment: Conditioned fear response (CFR) after fluid percussion injury, GTA by oral gavage; format: in vivo, mouse; conditions: 5 mg/kg GTA oral gavage for 5 days, CFR on day 7
Protocol: A fluid percussion injury assay was performed. Briefly, a craniotomy was performed on anesthetized mice using a 3 mm trephine and a Luer-Hoc needle hub attached to the skull and capped. The following day, a fluid percussion injury device was employed to deliver a pulse of saline through the hub at a pressure between 1.4-2.14 atm, producing a mild to moderate percussion injury. Sham animals received all anesthesia and surgical procedures except for the fluid pulse.
Mice were allowed to recover for one day. Mice were then treated with 5 mg/kg of glyceryl triacetate (GTA) via oral gavage for 5 days. The conditioned fear response (CFR) assay was performed on day 7.

[2] = within one hour of administration; cited from earlier work

CC(=O)OCC(COC(C)=O)OC(C)=O [GTA, glyceryl triacetate]
conditioned fear response (freezing) [1]: showed a similar fear response to sham animals and a statistically superior (P<0.05) response to those mice receiving the brain injury without treatment
increase of acetate levels in the brain [2]: over 15 fold
